The text below walks through data of patent publication US12729405B2, “Method and kit for determining benefit of chemotherapy” (St. Jude Children's Research Hospital, Inc., priority 2019, dated 2026).

Read-outs that look alike come from different tables or passages of the source.

One series concerns primary human ALL cells. Description: cells. Particulars: for response of dasatinib-resistant T-ALL: dasatinib-resistant T-ALL cases, as well as cell lines; for response of dasatinib-sensitive primary T-ALL cases to other ABL inhibitors: subset of primary T-ALL samples (N=18). Here is the method: Ex vivo Leukemia Drug Sensitivity Assay. Drug response of primary human ALL cells was evaluated using a co-culture system and flow cytometry assays. hTERT-immortalized mesenchymal stem cells ([…] Wang, et al. (2019) Nat. Commun. 10:3718) were first seeded in a 96-well plate format at a density of 10,000 cells per well in 100 μL of complete medium (RPMI-1640, L-glutamine, 10% fetal bovine serum and 1 μM Hydrocortisone). After 24 hours, leukemia cells were added at 160,000 cells per well to the stromal cell layer in 80 μL AIM-V medium along with 20 μL of drug solution prepared in the same medium. […] After 96 hours incubation at 37° C. with 5% CO2, cells were harvested and stained with CD19 or CD7 to identify leukemia blasts (for B-ALL and T-ALL, respectively). The total number of live leukemia cells were evaluated by using flow cytometry after Annexin V and DAPI staining. Drug-induced death was estimated by comparing to leukemia cells treated with the vehicle alone. The drug concentration that killed 50% of the leukemia cells (LC50 value) was determined using a dose-response model and as a measurement of drug sensitivity. Quality control was performed to remove cases with low viability (less than 1000 viable blast cells in each well in the absence of drugs on day 4).

For series [1] the following is noted: dasatinib dosing for CML, oral twice a day; cited from earlier work.

For `COc1ccc(N(C(=O)Oc2c(C)cccc2C)c2ccnc(Nc3ccc(N4CCN(C)CC4)cc3)n2)c(OC)c1` [WH 4-023], in the series with primary human ALL cells, the “cytotoxicity in dasatinib-sensitive cases” value was “potent cytotoxicity” and the “response of dasatinib-resistant T-ALL” value is “largely did not respond”.

Regarding `Cc1nc(Nc2ncc(C(=O)Nc3c(C)cccc3Cl)s2)cc(N2CCN(CCO)CC2)n1` [dasatinib], in the series with primary human ALL cells (45 T-ALL cases, cutoff LC50 80 nM, 15 cases), the “T-ALL cases classified as dasatinib-sensitive” value worked out at 33.3%. Moreover, the CC50 with primary human ALL cells (Homo sapiens, 96 h, read-out: LC50 (mean), cases with high LC50, ALL samples, high-LC50 mode of bimodal distribution, 96 hours) is 12000 nM; with primary human ALL cells (Homo sapiens, 96 h, read-out: LC50 (mean), cases with low LC50, ALL samples (352 children and adults), low-LC50 mode of bimodal distribution, 96 hours) it was 5.92 nM; in the series with primary human ALL cells (Homo sapiens, read-out: LC50 (range), cases with high LC50, ALL samples, high-LC50 mode, 20000 nM is the assigned ceiling), 102 to 20000 nM; in the series with primary human ALL cells (Homo sapiens, read-out: LC50, one T-ALL case with TCF7-SP1 fusion, 0.05 nM is the assigned floor value) it was at most 0.05 nM; in the series on primary human ALL cells (Homo sapiens, read-out: LC50, two additional T-ALL cases with the same SPI1 fusion gene, ex vivo), 0.05 nM; in the series on primary human ALL cells (human, 96 h), 0.05 to 79.4 nM. For the same compound, the “dasatinib-sensitive T-ALL in adults” value in the series with primary human ALL cells (adults with T-ALL, cutoff LC50 80 nM) came to 16.7%. Moreover, in the series with primary human ALL cells (children with T-ALL, cutoff LC50 80 nM), the “dasatinib-sensitive T-ALL in children” value is recorded as 44.4%. Moreover, the highest concentration (Cmax) in series [1] was 60 to 120 nM.

For the compound `Cc1ccc(NC(=O)c2ccc(CN3CCN(C)CC3)cc2)cc1Nc1nccc(-c2cccnc2)n1` [imatinib], the “response of dasatinib-sensitive primary T-ALL cases to other ABL inhibitors” value in the series with primary human ALL cells is given as “universally resistant”.

As to `Cc1cn(-c2cc(NC(=O)c3ccc(C)c(Nc4nccc(-c5cccnc5)n4)c3)cc(C(F)(F)F)c2)cn1` [nilotinib], the “response of dasatinib-sensitive primary T-ALL cases to other ABL inhibitors” value in the series with primary human ALL cells was “universally resistant”.

For `COC(=O)c1ccc2c(c1)NC(=O)/C2=C(\Nc1ccc(N(C)C(=O)CN2CCN(C)CC2)cc1)c1ccccc1` [nintedanib], in the series with primary human ALL cells, the “cytotoxicity in dasatinib-sensitive cases” value is “potent cytotoxicity” and the “response of dasatinib-resistant T-ALL” value was “largely did not respond”.
